Test results from article PMC7516806, “Hybrid Antimicrobial Peptide Targeting Staphylococcus aureus and Displaying Anti-infective Activity in a Murine Model” (Frontiers in Microbiology, 2020).
Positions of bridges follow the written chain, without caps; N, C: chain ends. Residues, ends and D or L forms follow the SMILES beside them.

Columns and labels:
L. rhamnosus 1.0936 = experiment: MIC, modified microtiter dilution; assay type: cell-based, Lactobacillus rhamnosus; details: 2–7 × 10^5 CFU/ml, 37°C, 24 h, no turbidity, at least three independent repeats
Description: (§1) The experiment was repeated at least three times independently.

L. rhamnosus 1.0911 = experiment: MIC, modified microtiter dilution; assay type: cell-based, Lactobacillus rhamnosus; details: 2–7 × 10^5 CFU/ml, 37°C, 24 h, no turbidity, at least three independent repeats
Description: as §1

L. rhamnosus 7469 = experiment: MIC, modified microtiter dilution; assay type: cell-based, Lactobacillus rhamnosus; details: 2–7 × 10^5 CFU/ml, 37°C, 24 h, no turbidity, at least three independent repeats
Description: as §1

L. rhamnosus 1.0385 = experiment: MIC, modified microtiter dilution; assay type: cell-based, Lactobacillus rhamnosus; details: 2–7 × 10^5 CFU/ml, 37°C, 24 h, no turbidity, at least three independent repeats
Description: as §1

mouse skin = experiment: Skin toxicity in vivo, TUNEL assay; design: species or system ICR mice; details: 100 μL at 80 × MIC injected into skin, 24 h
Method: Anesthetized mice were shaved on their backs and disinfected. A total of 100 μL of S2 (80 × MIC) was injected into the skin. Equal volumes of saline and 100% DMSO were used as the negative and positive controls, respectively. The skin was removed from the injection sites for tissue processing after 24 h. OCT-embedded slides were stained using the DeadEnd^TM Fluorometric TUNEL System for the detection of apoptotic cells and counterstained with 4,6-diamidino-2-phenylindole (DAPI). Photographs were taken using a microscope ([Huang et al., 2011a]).

S. aureus ATCC 29213 = experiment: SEM and TEM characterization of membrane damage; assay type: cell-based, Staphylococcus aureus
Method: Bacterial membrane damage induced by the peptide was visualized using scanning electron microscopy (SEM). S. aureus ATCC 29213 was washed three times using PBS after growing to the mid-log phase and diluted to an OD600 = 0.2. The bacteria were incubated for 30 min with peptide, and the bacterial growth in PBS was used as the control. The cells were washed twice with PBS and fixed with 2.5% (w/v) glutaraldehyde at 4°C overnight. The bacterial cells were dehydrated with a graded series of ethanol (50, 70, 90, and 100%) for 10 min at each step. The samples were transferred to a mixture (v: v = 1:1) of alcohol and tert-butanol for 30 min and tert-butanol alone for 1 h. The dried bacterial specimens, which were obtained using a critical point dryer, were coated and visualized under a field emission scanning electron microscope (Hitachi S-4800, Japan).
The processing method of the samples for transmission electron microscopy (TEM) was the same as the treatment for SEM. The samples were then prefixed with 2.5% glutaraldehyde at 4°C overnight, post-fixed with osmium tetroxide for 70 min, and washed twice with PBS (pH 7.2). Subsequently, the samples were dehydrated in different concentrations of ethanol (50, 70, and 90%) for 8 min in series and 10 min in 100% ethanol twice and then transferred to a mixture (v:v = 1:1) of 100% ethanol and acetone for 10 min. […]

S. aureus 29213 [1] = experiment: MIC in the presence of physiological salts; assay type: cell-based, Staphylococcus aureus; details: three independent repeats, unit not given in Table 4
Method: as §1
The MIC of peptides was determined in the presence of salts at physiological concentrations (150 mM NaCl, 4.5 mM KCl, 6 μM NH4Cl, 8 μM ZnCl2, 1 mM MgCl2, 2 mM CaCl2, and 4 μM FeCl3) as described previously ([Dong et al., 2014]). All experiments were performed three times independently.

E. coli K99 = details: MHB, 2–7 × 10^5 CFU/ml, 37°C, 24 h, no turbidity, at least three independent repeats
Outline: (§2)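 Peptides serially diluted in 0.01% acetic acid/0.2% BSA and mixed 1:1 with mid-log bacteria in MHB at 2–7 × 10^5 CFU/ml. Plates held at 37°C for 24 h. Broth with cells and broth alone served as controls; at least three independent repeats.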

E. coli K88 = details: MHB, 2–7 × 10^5 CFU/ml, 37°C, 24 h, no turbidity, at least three independent repeats
Outline: as §2

S. aureus 29213 [2] = experiment: Histology (HE) of infected skin tissue; assay type: in vivo, ICR mice; details: 24 h after injection of S. aureus
Method: To assess the antimicrobial activity of the peptide in vivo, a mouse model of subcutaneous infection was used ([Huang et al., 2011a]; [Omolo et al., 2017]). Female Institute for Cancer Research (ICR) mice (SPF, 20–25 g) were purchased from WeiTonglihua Co., Ltd. (Beijing, China), with eight animals per group. The mice were shaved on their backs and disinfected. S. aureus 29213 (100 μL) at a concentration of 1 × 10^8 CFU/mL was injected into the superficial skin of the mice. The mice were divided into four groups (n = 4), as follows: S. aureus + saline, S. aureus + S2 (80× MIC, 100 μL), S. aureus + vancomycin (Van) (80× MIC, 100 μL), and saline. S2, vancomycin, and saline were injected at the same site 1 h after infection. The mice were monitored over 24 h in an environmentally controlled room at 25 ± 1°C and 55 ± 5% relative humidity with a 12 h light/dark cycle.
To image the infected skin tissues, the mice were euthanized 24 h after the injection of S. aureus. Samples were fixed in 4% buffered paraformaldehyde and subjected to hematoxylin/eosin (HE) staining. The antimicrobial activity in vivo was determined by colony counting of infected skin samples. Skin homogenates were serially diluted in saline and incubated at 37°C for 24 h.

**Q.** For `CC(C)C[C@H](NC(=O)[C@H](CC(C)C)NC(=O)[C@H](Cc1c[nH]c2ccccc12)NC(=O)[C@H](Cc1c[nH]c2ccccc12)NC(=O)[C@H](Cc1c[nH]c2ccccc12)NC(=O)[C@H](CCCNC(=N)N)NC(=O)[C@@H]1CSSC[C@H](N)C(=O)N[C@@H](C)C(=O)N[C@@H](CO)C(=O)N[C@@H](Cc2ccc(O)cc2)C(=O)N[C@@H](Cc2ccccc2)C(=O)N1)C(N)=O` [Peptide S2] (H-CASYFCRWWWLL-NH2; disulfide 1-6; N-terminus assumed), which “MIC L. rhamnosus 1.0936” value (L. rhamnosus 1.0936) is on record?
**A.** >64 µM

**Q.** And the “MIC L. rhamnosus 1.0911” value (L. rhamnosus 1.0911)?
**A.** >64 µM

**Q.** What about the “MIC L. rhamnosus 7469” value (L. rhamnosus 7469) of the same molecule?
**A.** >64 µM

**Q.** What about the “MIC L. rhamnosus 1.0385” value (L. rhamnosus 1.0385) of the same molecule?
**A.** >64 µM

**Q.** And the “apoptotic cells in mouse skin (TUNEL)” value (mouse skin)?
**A.** no apparent epidermal apoptosis

**Q.** What about the “morphology and membrane integrity by SEM” value (S. aureus ATCC 29213; at its MIC for 30 min) of the same molecule?
**A.** wrinkles, disrupted membrane integrity, and leakage of cell contents

**Q.** What about the “morphology and internal structure by TEM” value (S. aureus ATCC 29213; treatment for 30 min) of the same molecule?
**A.** the membrane of S. aureus was damaged, and a substantial outflow of cytoplasm was observed

**Q.** What about the “MIC against S. aureus 29213, FeCl3” value (S. aureus 29213 [1]; 4 μM FeCl3) of the same molecule?
**A.** 16 µM

**Q.** What about the “MIC against S. aureus 29213, NH4Cl” value (S. aureus 29213 [1]; 6 μM NH4Cl) of the same molecule?
**A.** 8 µM

**Q.** What about the “MIC against S. aureus 29213, ZnCl2” value (S. aureus 29213 [1]; 8 μM ZnCl2) of the same molecule?
**A.** 4 µM

**Q.** And the “MIC against S. aureus 29213, MgCl2” value (S. aureus 29213 [1]; 1 mM MgCl2)?
**A.** 8 µM

**Q.** What about the “MIC against S. aureus 29213, CaCl2” value (S. aureus 29213 [1]; 2 mM CaCl2) of the same molecule?
**A.** 16 µM

**Q.** What about the “MIC against S. aureus 29213, KCl” value (S. aureus 29213 [1]; 4.5 mM KCl) of the same molecule?
**A.** 8 µM

**Q.** And the “MIC against S. aureus 29213, NaCl” value (S. aureus 29213 [1]; 150 mM NaCl)?
**A.** 8 µM

**Q.** What about the “MIC E. coli K99” value (E. coli K99) of the same molecule?
**A.** >64 µM

**Q.** And the “MIC E. coli K88” value (E. coli K88)?
**A.** >64 µM

**Q.** What about the “histomorphological changes of skin tissue (HE)” value (S. aureus 29213 [2]) of the same molecule?
**A.** good recovery
